Source: article PMC12567398, “New Assay Systems to Characterize the Broad-Spectrum Antiherpesviral and Non-Herpesviral Activity of Cyclin-Dependent Kinase (CDK) 8 Inhibitors” (Pharmaceuticals, 2025)
Like-named read-outs stand apart in the source and are kept apart here.

Assays:
HCMV Merlin-GFP = assay: HCMV time-of-addition reporter assay in HFFs, Merlin-GFP
KSHV = test system: KSHV; parameters: method as in ref 35, 38 (a number printed in a supplementary file, which may have a reference list of its own: not looked up in the article's list); settings: Table S1; read-out: antiviral EC50, KSHV; cited from earlier work
RhCMV = test system: RhCMV; parameters: method as in ref 35, 38 (a number printed in a supplementary file, which may have a reference list of its own: not looked up in the article's list); settings: Table S1; read-out: antiviral EC50, RhCMV; cited from earlier work
[1] = test system: Epstein–Barr virus P3HR-1; assay: EBV lytic assay in TPA-induced P3HR-1 cells, qPCR; format: cell-based
HCMV TB40-YFP = assay: HCMV time-of-addition reporter assay in HFFs, TB40-YFP
MHV-68-Luc = MHV-68-Luc luciferase reporter assay; format: cell-based, murine herpesvirus 68
vaccinia virus VV IHD-5 = assay: microbe, parasite or virus in culture; format: cell-based; settings: read-out: antiviral EC50, VV
VZV = test system: VZV; parameters: method as in ref 35, 38 (a number printed in a supplementary file, which may have a reference list of its own: not looked up in the article's list); settings: Table S1; read-out: antiviral EC50, VZV; cited from earlier work
MCMV = test system: MCMV; parameters: method as in ref 35, 38 (a number printed in a supplementary file, which may have a reference list of its own: not looked up in the article's list); settings: Table S1; read-out: antiviral EC50, MCMV; cited from earlier work
HHV-6A = test system: HHV-6A; parameters: method as in ref 35 (a number printed in a supplementary file, which may have a reference list of its own: not looked up in the article's list); settings: Table S1; J-Jhan cells; read-out: antiviral EC50, HHV-6A (J-Jhan); cited from earlier work
HSV-1 = test system: HSV-1; parameters: method as in ref 35, 38 (a number printed in a supplementary file, which may have a reference list of its own: not looked up in the article's list); settings: Table S1; read-out: antiviral EC50, HSV-1; cited from earlier work
EHV-1 = assay: EHV-1-specific qPCR of virus release into culture medium; format: cell-based, equine herpesvirus 1; settings: EHV-1, read-out: EC50
SARS-CoV-2 d6-YFP = settings: for CDK8 inhibitor sensitivity of SARS-CoV-2 in Caco-2 cells: in words
HCMV AD169-GFP = assay: HCMV time-of-addition reporter assay in HFFs, AD169-GFP
ChCMV = test system: ChCMV; parameters: method as in ref 35, 38 (a number printed in a supplementary file, which may have a reference list of its own: not looked up in the article's list); settings: Table S1; read-out: antiviral EC50, ChCMV; cited from earlier work
JCPyV = test system: JCPyV; parameters: method as in ref 35, 38 (a number printed in a supplementary file, which may have a reference list of its own: not looked up in the article's list); settings: Table S1; read-out: antiviral EC50, JCPyV; cited from earlier work
HAdV = test system: HAdV; parameters: method as in ref 35, 38 (a number printed in a supplementary file, which may have a reference list of its own: not looked up in the article's list); settings: Table S1; read-out: antiviral EC50, HAdV; cited from earlier work
EHV-1-GFP = EHV-1-GFP antiviral assay, GFP fluorometry; format: cell-based, equine herpesvirus 1
RCMV = test system: RCMV; parameters: method as in ref 35, 38 (a number printed in a supplementary file, which may have a reference list of its own: not looked up in the article's list); settings: Table S1; read-out: antiviral EC50, RCMV; cited from earlier work
HHV-6A-GFP = assay: HHV-6A plaque reduction assay in HFFs
HCMV = test system: HCMV; parameters: method as in ref 35, 38 (a number printed in a supplementary file, which may have a reference list of its own: not looked up in the article's list); settings: Table S1; read-out: antiviral EC50, HCMV; cited from earlier work
GPCMV = test system: GPCMV; parameters: method as in ref 35, 38 (a number printed in a supplementary file, which may have a reference list of its own: not looked up in the article's list); settings: Table S1; read-out: antiviral EC50, GPCMV; cited from earlier work
[2] = Neutral Red uptake cell viability assay, P3HR-1; settings: human
in vitro [3] = settings: African green monkey
in vitro [4] = settings: mouse
in vitro [5] = settings: African green monkey; remark: listed apart in the source
in vitro [6] = settings: human
[7] = Table S1, read-out: antiviral EC50, EBV
[8] = read-out: Antiviral mean EC50 based on YFP measurements, SARS-CoV-2 d6-YFP, Caco-2, […]
[9] = read-out: antiviral EC50, SARS-CoV-2, Table S1

Cn1ncc2cc(-c3cnc(N)c(Cl)c3N3CCC4(CCNC4=O)CC3)ccc21 [CCT-251921]
EC50 (HCMV Merlin-GFP; read-out: Merlin-GFP EC50, drug addition 0 d p.i., readout 7 d p.i.): 0.7 ± 1.3 nM
EC50 (HCMV Merlin-GFP; read-out: Merlin-GFP EC50, drug addition 1 d p.i., readout 7 d p.i.): 13 ± 8 nM
EC50 (HCMV Merlin-GFP; read-out: Merlin-GFP EC50, drug addition 2 d p.i., readout 7 d p.i.): 3.4 ± 6.8 nM
EC50 (HCMV Merlin-GFP; read-out: Merlin-GFP EC50, drug addition 4 d p.i., readout 7 d p.i.): 5.9 ± 4.9 nM
EC50 (KSHV): 300 nM
EC50 (RhCMV): 3 ± 2 nM
EC50 [1, 7]: 2500 ± 1000 nM
EC50 (HCMV TB40-YFP; read-out: TB40-YFP EC50, drug addition 0 d p.i., readout 7 d p.i.): 8.7 ± 5 nM
EC50 (HCMV TB40-YFP; read-out: TB40-YFP EC50, drug addition 1 d p.i., readout 7 d p.i.): 26 ± 4 nM
EC50 (HCMV TB40-YFP; read-out: TB40-YFP EC50, drug addition 2 d p.i., readout 7 d p.i.): > 50 nM
EC50 (HCMV TB40-YFP; read-out: TB40-YFP EC50, drug addition 3 d p.i., readout 7 d p.i.): > 50 nM
EC50 (HCMV TB40-YFP; read-out: TB40-YFP EC50, drug addition 4 d p.i., readout 7 d p.i.): > 50 nM
CC50 (293T-tdTom-Luc cells): 95.3 ± 6.6 µM
EC50 (MHV-68-Luc; Table S1, COS-7, read-out: antiviral EC50, MHV-68 (COS-7)): 0.5 ± 0.9 nM
EC50 (MHV-68-Luc; Table S1, HFF, read-out: antiviral EC50, MHV-68 (HFF)): 500 ± 300 nM
EC50 (MHV-68-Luc; Table S1, MEF, read-out: antiviral EC50, MHV-68 (MEF)): 10 ± 9 nM
EC50 (MHV-68-Luc; Table S1, Vero, read-out: antiviral EC50, MHV-68 (Vero)): 2 ± 1 nM
EC50 (vaccinia virus VV IHD-5): > 50 µM
CC50 (Caco-2 cells): > 100 µM
EC50 (VZV): 28 ± 9 µM
EC50 (MCMV): > 40 nM
EC50 (HHV-6A): 39 ± 21 µM
CC50 (P3HR-1 cells): > 100 µM
EC50 (HSV-1): > 50 µM
EC50 (EHV-1; qPCR / HFF): 800 nM
CDK8 inhibitor sensitivity of SARS-CoV-2 in Caco-2 cells (SARS-CoV-2 d6-YFP): lack of CDK8 inhibitor sensitivity
EC50 (SARS-CoV-2 d6-YFP; [8]): ≥ 15.4 µM
EC50 (SARS-CoV-2 d6-YFP; [9]): 62.4 ± 18.5 µM
EC50 (HCMV AD169-GFP; read-out: AD169-GFP EC50, drug addition 0 d p.i., readout 7 d p.i.): 0.7 ± 0.7 nM
EC50 (HCMV AD169-GFP; read-out: AD169-GFP EC50, drug addition 1 d p.i., readout 7 d p.i.): 3.2 ± 2.6 nM
EC50 (HCMV AD169-GFP; read-out: AD169-GFP EC50, drug addition 2 d p.i., readout 7 d p.i.): 8.3 ± 7.9 nM
EC50 (HCMV AD169-GFP; read-out: AD169-GFP EC50, drug addition 3 d p.i., readout 7 d p.i.): > 50 nM
EC50 (HCMV AD169-GFP; read-out: AD169-GFP EC50, drug addition 4 d p.i., readout 7 d p.i.): > 50 nM
EC50 (ChCMV): 30 ± 20 nM
EC50 (JCPyV): 3.7 ± 3 µM
EC50 (HAdV): 30 ± 30 nM
EC50 (EHV-1-GFP; EHV-1, GFP / COS-7, read-out: EC50): 100 nM
CC50 (Vero cells): > 100 µM
EC50 (RCMV): 20 ± 50 nM
EC50 (HHV-6A-GFP; read-out: antiviral EC50, HHV-6A (HFF), Table S1, HFF): 40 ± 20 nM
CC50 (MEFs): > 100 µM
EC50 (HCMV): 4 ± 2 nM
EC50 (GPCMV): 50 ± 80 nM

Cc1n[nH]c2ncc(C(=O)N3CCC[C@H]3c3ccc(Cl)cc3)cc12 [MSC-2530818]
EC50 (KSHV): > 40000 nM
EC50 (RhCMV): 2 ± 1 nM
EC50 [1, 7]: 1400 ± 600 nM
CC50 (293T-tdTom-Luc cells): > 100 µM
EC50 (vaccinia virus VV IHD-5): > 50 µM
CC50 (Caco-2 cells): > 100 µM
EC50 (VZV): > 50 µM
EC50 (MCMV): 20 ± 20 nM
EC50 (HHV-6A): > 50 µM
CC50 (P3HR-1 cells): > 100 µM
EC50 (HSV-1): 42.3 ± 4.9 µM
EC50 (EHV-1; qPCR / COS-7): 700 ± 900 nM
EC50 (EHV-1; qPCR / HFF): 80 ± 200 nM
CDK8 inhibitor sensitivity of SARS-CoV-2 in Caco-2 cells (SARS-CoV-2 d6-YFP): low level of sensitivity
EC50 (SARS-CoV-2 d6-YFP; [8]): ≥ 15.4 µM
EC50 (SARS-CoV-2 d6-YFP; [9]): 15.4 ± 6.4 µM
EC50 (ChCMV): 20 ± 30 nM
EC50 (HAdV): 300 ± 300 nM
CC50 (Vero cells): > 100 µM
EC50 (RCMV): 3 ± 8 nM
EC50 (HHV-6A-GFP; read-out: Antiviral mean EC50 based on plaque assay measurements, HHV-6A, HFF): 200 ± 400 nM
CC50 (MEFs): > 100 µM
EC50 (HCMV): 1 ± 0.7 nM
EC50 (GPCMV): 30 ± 50 nM

CC(C)OC(=O)[C@H](C)N[P@](=O)(CO[C@H](C)Cn1cnc2c(N)ncnc21)Oc1ccccc1 [TAF, tenofovir alafenamide]
EC50 ([1]; human gammaherpesvirus 4, P3HR-1, 240 h, read-out: Antiviral mean EC50 based on qPCR measurements): 1800 nM
CC50 at 10 d [2]: > 100 µM

Nc1nc(O)c2ncn(COC(CO)CO)c2n1 [GCV, ganciclovir]
CC50 at 4 d (in vitro [3]): > 100 µM
EC50 (MHV-68-Luc; Murine herpesvirus, MHV-68-Luc, HFF): > 50000 nM
EC50 (MHV-68-Luc; Murine herpesvirus, MHV-68-Luc, MEF): 9400 ± 6300 nM
EC50 (MHV-68-Luc; Murine herpesvirus, Vero, MHV-68-Luc): 900 ± 700 nM
CC50 at 7 d (in vitro [4]): > 100 µM
CC50 at 7 d (in vitro [5]): > 100 µM
EC50 (EHV-1-GFP): 1300 ± 300 nM
EC50 (EHV-1-GFP; COS-7): 200 ± 100 nM
EC50 (EHV-1-GFP; Equus caballus, Vero): 40 ± 50 nM
EC50 (HHV-6A-GFP; Human betaherpesvirus 6A, read-out: Antiviral mean EC50 based on plaque assay measurements): 2500 ± 600 nM
CC50 (in vitro [6]; CC50): > 50 µM
CC50 (in vitro [6]; mean CC50): > 100 µM
